Consider 2 compounds from US9717727B2, “Methods of treating and preventing leukemia and other cancers of the blood and bone” (The Trustees of Columbia University in the City of New York, priority 2011, dated 2017).

Entries after “also recorded” stand apart in the source; their conditions may differ. Like-named read-outs stand apart in the source and are kept apart here.

The subject of test [1] is EL4 cells. The test can be described thus: Injection of EL4 cells pre-treated with LP-533401 or serotonin into syngeneic mice (Example 13). The test is classed as in vivo. Particulars: cells treated before injection; LP-533401 0.1 to 1-fold serum concentration, serotonin 25 to 100 μM. As to the method:
(§1) EL4 cells and WEH-3B cells, as described in Example 2, were treated with either LP-533401 or serotonin LP-533401 treatments were performed at 0.1 to 1-fold the amount equivalent to the LP-533401 serum concentration in mice treated with this compound. Serotonin was given at concentrations ranging from 25 to 100 μM, doses at which it affects the proliferation of cells expressing serotonin receptors (Kode et al. (2012); Yadav et al. (2008) Serafeim et al. (2003)).
EL4 cells treated with LP-533401 or serotonin were then injected into syngeneic mice as described in Example 2 to monitor leukemia engraftment, as commonly described for evaluating potential direct effects of compounds on leukemia cells (Moellering et al. (2009)).

Test [2] concerns myeloid or the lymphoblastic leukemia cells. The experiment in a line: Serotonin treatment of leukemia cells, proliferation or survival. The test is classed as cell-based. On the procedure:
as §1

For test [3], the system named is serotonin. The note with it: six consecutive doses, cited from earlier work.

Take `NCCc1c[nH]c2ccc(O)cc12` [serotonin, 5-hydroxytryptamine]: the “leukemia outcome (burden and lethality) after injection of pre-treated EL4 cells” value in test [1] is “neither implantation of serotonin-treated leukemia cells affected leukemia progression; also recorded: neither of the two treatments altered leukemia outcome”. In addition, the “proliferation or survival of leukemia cells” value in test [2] is “no effect”.
As for `CCOC(=O)[C@@H](N)Cc1ccc(-c2cc(OC(c3ccc(-c4cccc(F)c4)cc3)C(F)(F)F)nc(N)n2)cc1` (some centres unmarked) [LP-615819], the “serotonin levels in the small intestine lowered” value in test [3] (30 mg/kg twice per day) is 55%; in test [3] (90 mg/kg twice per day), 70%. The brain-derived serotonin result in test [3] (30 or 90 mg/kg twice per day) is “unchanged”.
